Experimental data taken from patent US20250346943A1, “DEGRADER COMPOUNDS OF QSOX1 mRNA” (UNIVERSITY OF FLORIDA RESEARCH FOUNDATION, INCORPORATED, priority 2022, published 2025).
Entries after “also recorded” stand apart in the source; their conditions may differ.

Key:
[1] = test system: wild type (WT) QSOX1 5′ UTR RNA hairpin; assay: In vitro Chem-CLIP and competitive Chem-CLIP with Cy5-labeled WT RNA; assay type: binding, human
Description: In Vitro Chemical-Crosslinking and Isolation by Pull-down (Chem-CLIP) with Fluorescently Labeled RNA. Cy5-labeled RNA (100 μL, 2 μM) was folded by heating at 95° C. for 2 min in 1× Folding Buffer and cooled on ice. The RNA was then mixed with F1 at the indicated concentrations. The sample was irradiated with UV light (365 nm) for 15 min and then added to 100 μL of azide-disulfide agarose beads (Click Chemistry Tools, 1238-2) pre-washed with 200 μL of 25 mM HEPES, pH 7.0. A click reaction solution was prepared by mixing 30 μL of 250 mM sodium ascorbate, 30 μL of 10 mM CuSO4, and 30 μL of 50 mM THPTA, which was added to the sample. The sample was incubated while rotating at 37° C. for 2 h, briefly centrifuged, and then the supernatant was decanted. The beads were washed six times with 1× Washing Buffer (10 mM Tris-HCl, pH 7, 4 M NaCl, 1 mM EDTA, and 0.05% (v/v) Tween-20) following by incubation with 1× Releasing Buffer (50 mM TCEP and 100 mM K2CO3) at 37° C. for 30 min. An equivalent of iodoacetamide (200 mM) was added to the sample, which was incubated at 37° C. for an additional 30 min. The sample was briefly centrifuged and supernatant containing RNA was carefully transferred to a clean tube. Cy-5 fluorescence in the supernatant was measured with a Molecular Devices SpectraMax M5 plate reader with an excitation wavelength of 640 nm and an emission wavelength of 680 nm. For competitive Chem-CLIP, F1-RIBOTAC was added to the folded the RNA and incubated at room temperature for 15 min prior to the addition of F1. Pull-down was then completed as described above.

[2] = test system: QSOX1-a protein; assay: QSOX1-a protein abundance by Western blotting in MDA-MB-231 cells; assay type: cell-based, human; details: 10 μM
Description: Measuring Protein Abundance by Western Blotting. MDA-MB-231 cells were seeded in 6-well plates at ˜50% confluency and treated with vehicle (DMSO) or compound as described above but without EU treatment. After 16 h, the compound-containing growth medium was removed and replaced with fresh medium containing compound (re-dosing). After an additional 32 h incubation, total protein was harvested (48 h total treatment time). The cells were then washed twice with cold 1×DPBS, and total protein was harvested by using Mammalian Protein Extraction Reagent (M-PER, Thermo Scientific) per the manufacturer's protocol. Protein concentration was quantified by using BCA Protein Assay Kit (Pierce), and the proteins were separated by using 10% SDS-polyacrylamide gel (20 μg protein per lane). After gel electrophoresis in 1× Running Buffer (50 mM MOPS, 50 mM Tris-base, pH 7.5, 1 mM EDTA, and 0.1% (w/v) SDS) at 120 V for 1 h, the proteins were transferred to a PVDF membrane (0.45 μm, Cytiva) at 300 mA for 1 h in 1× Transfer Buffer (25 mM Bicine, 25 mM Tris-base, pH 7.5, 1:4 MeOH:H2O). The membrane was blocked with 5% (w/v) non-fat dry milk in TBST (1×TBS containing 0.1% (v/v) Tween-20) for 1 h at room temperature. The primary antibody for QSOX1 protein (Cat #10092-932, Proteintech) or SQSTM1 protein (Cat #ab 109012, Abcam) was incubated with 1:1000 dilutions at 4° C. for 16 h. The membrane was then washed by TBST four times (5 min each) and then incubated with the secondary antibody (Cat #7074S, Cell Signaling) with 1:5000 dilution at room temperature for 2 h. The membrane was washed with TBST four times (5 min each) and imaged by using a SuperSignal West Pico Chemiluminescent Substrate (Pierce) per manufacturer's protocol. The blot was stripped by washing the membrane in 1× Stripping Buffer (200 mM glycine, pH 2.2, 4 mM SDS, 1% (v/v) Tween 20) at room temperature for 30 min, followed by blocking again as described above. […] Expression levels of proteins were quantified based on band intensity by using ImageJ. […]

[3] = test system: mutant RNA (U-bulge mutated to U/A base pair); assay: Optical melting, mutant model RNA; assay type: binding
Description: Optical Melting Experiments. The thermal stability of WT and mutant model RNAs in the presence and absence of F1-Amide was measured by optical melting. The RNA ([…]) was prepared in 1× Melting Buffer (8 mM Na2HPO4, pH 7, 10 mM NaCl, and 1 mM EDTA) and heated to 95° C. followed by cooling on ice. F1-Amide was added to the final concentration of 2 mM; an equal volume of DMSO was added to the vehicle sample. The absorbance of the solution at 260 nm was measured by a Beckman Coulter DU800 spectrophotometer as a function of temperature, from 12° C. to 85° C. at a rate of 1° C./min. The background absorbance of buffer with DMSO or compound was subtracted before fitting the curve with MeltWin (v3.5)^7 to determine the melting temperature (Tm) and the Gibbs free energy (ΔG37° C.).

SMILES | competition of F1 cross-linking to the QSOX1-a target site (competitive Chem-CLIP) ([1]; constant concentration of F1, increasing competitor) | reduction of QSOX1-a protein abundance [2] [%] | cross-linking / pull-down of WT QSOX1-a 5′ UTR hairpin ([1]; in vitro Chem-CLIP) | effect on Tm or ΔG37° C. of mutant RNA [3]
CCOC(=O)C1=C(Nc2ccccc2)S/C(=C\c2ccc(OCCOCCOCCOCCNC(=O)CCC(=O)N(C)[C@H]3CC[C@@H](c4ccc(Cl)c(Cl)c4)c4ccccc43)c(O)c2)C1=O [Compound F1-RIBOTAC] | dose-dependently competed off; also recorded: dose-dependently ablates | ~35 | – | –
C#CCCC1(CCC(=O)N(C)[C@H]2CC[C@@H](c3ccc(Cl)c(Cl)c3)c3ccccc32)N=N1 [Compound F1] | – | – | selectively cross-linked; also recorded: significantly pulled down | No changes
